According to ChEMBL document CHEMBL6182931, “Chemical Evolution of Aplithianine Class of Serine/Threonine Kinase Inhibitors” (J Med Chem, 2025):
Calls of active or inactive are those of the source. The calls are words filed in the database; no cut-off is given here.

system: LOX IMVI; assay: Antiproliferative activity against human LOX IMVI cells assessed as growth inhibition; format: functional

Structure (SMILES)	GI50
C1=C(C2=CN(c3ncnc4[nH]ccc34)CCS2)CCNC1	> 1000 nM

system: NCI/ADR-RES; assay: Antiproliferative activity against human NCI/ADR-RES cells assessed as growth inhibition; format: functional, cell-based

Structure (SMILES)	Activity
C1=C(C2=CN(c3ncnc4[nH]ccc34)CCS2)CCNC1	inactive

system: MOLT-4; assay: Antiproliferative activity against human MOLT-4 cells assessed as growth inhibition; format: functional

Structure (SMILES)	Activity
C1=C(C2=CN(c3ncnc4[nH]ccc34)CCS2)CCNC1	Active

system: SR; assay: Antiproliferative activity against human SR cells assessed as growth inhibition; format: functional

Structure (SMILES)	Activity
C1=C(C2=CN(c3ncnc4[nH]ccc34)CCS2)CCNC1	Active

system: OVCAR-4; assay: Antiproliferative activity against human OVCAR-4 cells assessed as growth inhibition; format: functional, cell-based

Structure (SMILES)	Activity
C1=C(C2=CN(c3ncnc4[nH]ccc34)CCS2)CCNC1	inactive

system: not listed separately; assay: Inhibition of DNAJB1-PKAcalpha (unknown origin) using biotinylated-peptide substrate CREB incubated for 45 mins in presence of ATP and cAMP by ELISA; design: species or system Homo sapiens

Structure (SMILES)	IC50
Cc1ncc(C2=CN(c3ncnc4[nH]cnc34)CCS2)o1	5200 nM
CN(CCN)C(=O)C1=CN(c2ncnc3[nH]ccc23)CCS1	370 nM
CN(C[C@H]1CCCCN1)C(=O)C1=CN(c2ncnc3[nH]ccc23)CCS1	420 nM
O=C(C1=CN(c2ncnc3[nH]ccc23)CCS1)N1CCc2nc[nH]c2C1	580 nM
NCCNC(=O)C1=CN(c2ncnc3[nH]cnc23)CCS1	1300 nM
FC(F)(F)COc1cc(N2C=C(c3ccnc4[nH]ccc34)SCC2)ncn1	820 nM
CN[C@@H]1CCCN(C(=O)C2=CN(c3ncnc4[nH]ccc34)CCS2)C1	87 nM
CN[C@@H]1CCCN(C(=O)C2=CN(c3ccnc4[nH]cc(C)c34)CCS2)C1	730 nM
O=C(NC[C@H]1CCCCN1)C1=CN(c2ncnc3[nH]ccc23)CCS1	680 nM
N[C@H]1CCN(C(=O)C2=CN(c3ncnc4[nH]ccc34)CCS2)C1	500 nM
N[C@@H]1CCCN(C(=O)C2=CN(c3ccnc4[nH]ccc34)CCS2)C1	19 nM
CN[C@H]1CCCN(C(=O)C2=CN(c3ncnc4[nH]ccc34)CCS2)C1	310 nM
Cc1c[nH]c2ncnc(N3C=C(c4cccnc4)SCC3)c12	> 10000 nM
O=C(NCCNC(=O)c1ccccc1)C1=CN(c2ncnc3[nH]cnc23)CCS1	> 10000 nM
Fc1cncnc1N1C=C(c2ccnc3[nH]ccc23)SCC1	37 nM
C1=C(c2ccnc3[nH]ccc23)SCCN1c1cc(OCc2ccccc2)ncn1	330 nM
CC(C)(C)c1cc(N2C=C(c3ccnc4[nH]ccc34)SCC2)ncn1	7900 nM
C1=C(c2cnco2)SCCN1c1ncnc2[nH]ccc12	2900 nM
Cn1nccc1C1=CN(c2ncnc3[nH]cnc23)CCS1	7200 nM
CN[C@@H]1CCCN(C(=O)C2=CN(c3ccnc4[nH]ccc34)CCS2)C1	570 nM
C[C@H](N)CNC(=O)C1=CN(c2ncnc3[nH]ccc23)CCS1	180 nM
Cc1ncoc1C1=CN(c2ncnc3[nH]ccc23)CCS1	4500 nM
CCCc1cc2c(N3C=C(c4ccnc5[nH]ccc45)SCC3)ncnc2s1	1100 nM
FC(F)(F)c1cc(N2C=C(c3ccnc4[nH]ccc34)SCC2)ncn1	2400 nM
C[C@]1(N)CCCN(C(=O)C2=CN(c3ncnc4[nH]cnc34)CCS2)C1	2200 nM
Cc1noc(C)c1C1=CN(c2ncnc3[nH]ccc23)CCS1	> 10000 nM

Structure (SMILES)	IC50
Cc1c[nH]c2ncnc(N3C=C(c4cnn(C)c4)SCC3)c12	5500 nM
Cc1c[nH]c2ncnc(N3C=C(c4cc[nH]n4)SCC3)c12	5200 nM
N[C@@H]1c2ccccc2C[C@@H]1NC(=O)C1=CN(c2ncnc3[nH]ccc23)CCS1	410 nM
C1=C(c2ccnc3[nH]ccc23)SCCN1c1cc(-c2ccsc2)ncn1	2200 nM
NCC1(NC(=O)C2=CN(c3ncnc4[nH]ccc34)CCS2)CCC1	170 nM
C1=C(c2ccncn2)SCCN1c1ccnc2[nH]ccc12	> 10000 nM
C1=C(c2cccnc2)SCCN1c1ncnc2[nH]cnc12	> 10000 nM
CN[C@@H]1CCCN(C(=O)C2=CN(c3ncnc4[nH]cc(C)c34)CCS2)C1	50 nM
C[C@]1(N)CCCN(C(=O)C2=CN(c3ccnc4[nH]ccc34)CCS2)C1	420 nM
C1=C(c2ccnc3[nH]ccc23)SCCN1c1cc(N2CCOCC2)ncn1	600 nM
N[C@H]1CCCCN(C(=O)C2=CN(c3ncnc4[nH]ccc34)CCS2)C1	570 nM
C[C@@H](N)CNC(=O)C1=CN(c2ncnc3[nH]ccc23)CCS1	180 nM
N[C@@H]1CCCCN(C(=O)C2=CN(c3ncnc4[nH]ccc34)CCS2)C1	130 nM
Cn1nccc1C1=CN(c2ncnc3[nH]ccc23)CCS1	> 10000 nM
CN[C@H]1CCCN(C(=O)C2=CN(c3ncnc4[nH]cc(C)c34)CCS2)C1	400 nM
Cc1ncc(C2=CN(c3ncnc4[nH]ccc34)CCS2)o1	> 10000 nM
CN[C@H]1CCCN(C(=O)C2=CN(c3ncnc4[nH]cnc34)CCS2)C1	770 nM
N[C@@H]1CCCC[C@@H]1NC(=O)C1=CN(c2ncnc3[nH]ccc23)CCS1	130 nM
O=C(NC[C@@H]1CCCCN1)C1=CN(c2ncnc3[nH]ccc23)CCS1	660 nM
N[C@H]1CCCC[C@H]1NC(=O)C1=CN(c2ncnc3[nH]ccc23)CCS1	2600 nM
C1=C(c2cnco2)SCCN1c1ncnc2[nH]cnc12	1800 nM
NCCCCCCNC(=O)C1=CN(c2ncnc3[nH]ccc23)CCS1	2900 nM
Cc1c[nH]c2nccc(N3C=C(C(=O)N4CCC[C@@](C)(N)C4)SCC3)c12	43 nM
Cc1c[nH]c2ncnc(N3C=C(c4ccnn4C)SCC3)c12	> 10000 nM
O=C(C1=CN(c2ncnc3[nH]ccc23)CCS1)N1CCn2ccnc2C1	230 nM
O=C(NC[C@H]1CCCN1)C1=CN(c2ncnc3[nH]ccc23)CCS1	380 nM

Structure (SMILES)	IC50
Cc1ncoc1C1=CN(c2ncnc3[nH]cc(C)c23)CCS1	> 10000 nM
NCCCNC(=O)C1=CN(c2ncnc3[nH]ccc23)CCS1	360 nM
O=C(N[C@@H]1CCCNC1)C1=CN(c2ncnc3[nH]ccc23)CCS1	690 nM
N[C@H]1CCCN(C(=O)C2=CN(c3ncnc4[nH]ccc34)CCS2)C1	81 nM
CN(C[C@@H]1CCCCN1)C(=O)C1=CN(c2ncnc3[nH]ccc23)CCS1	1200 nM
Cc1cc(N2C=C(c3ccnc4[nH]ccc34)SCC2)nc(N(C)C)n1	3000 nM
O=C(NC[C@@H]1CCCN1)C1=CN(c2ncnc3[nH]ccc23)CCS1	350 nM
Cn1cc(C2=CN(c3ncnc4[nH]cnc34)CCS2)cn1	2700 nM
NC1(CNC(=O)C2=CN(c3ncnc4[nH]ccc34)CCS2)CCC1	180 nM
C[C@@H](CN)NC(=O)C1=CN(c2ncnc3[nH]ccc23)CCS1	110 nM
C[C@H]1C[C@@H](N)CN(C(=O)C2=CN(c3ncnc4[nH]ccc34)CCS2)C1	6 nM
C[C@H](CN)NC(=O)C1=CN(c2ncnc3[nH]ccc23)CCS1	530 nM
Cc1ncoc1C1=CN(c2ncnc3[nH]cnc23)CCS1	1400 nM
C1=C(c2cccnc2)SCCN1c1ncnc2[nH]ccc12	> 10000 nM
C[C@@]1(N)CCCN(C(=O)C2=CN(c3ncnc4[nH]cnc34)CCS2)C1	62 nM
CN[C@H]1CCCN(C(=O)C2=CN(c3ccnc4[nH]ccc34)CCS2)C1	270 nM
C1=C(c2cc[nH]n2)SCCN1c1ncnc2[nH]ccc12	2000 nM
N[C@@H]1CCCN(C(=O)C2=CN(c3ncnc4[nH]ccc34)CCS2)C1	8 nM
Cc1c[nH]c2nccc(N3C=C(C(=O)N4CCC[C@](C)(N)C4)SCC3)c12	500 nM
O=C(N[C@H](c1ccccc1)[C@@H]1CCCN1)C1=CN(c2ncnc3[nH]ccc23)CCS1	640 nM
O=C(N[C@@H](c1ccccc1)[C@@H]1CCCN1)C1=CN(c2ncnc3[nH]ccc23)CCS1	13 nM
C[C@@H]1CCN(C(=O)C2=CN(c3ncnc4[nH]ccc34)CCS2)C[C@@H]1N	60 nM
CC(=O)NCCNC(=O)C1=CN(c2ncnc3[nH]cnc23)CCS1	> 10000 nM
NC[C@H](NC(=O)C1=CN(c2ncnc3[nH]ccc23)CCS1)c1ccccc1	110 nM
O=C(C1=CN(c2ncnc3[nH]ccc23)CCS1)N1C[C@@H]2CCCN[C@@H]2C1	1100 nM
Cc1noc(C)c1C1=CN(c2ncnc3[nH]cc(C)c23)CCS1	> 10000 nM

Structure (SMILES)	IC50
CN[C@H]1CCCN(C(=O)C2=CN(c3ccnc4[nH]cc(C)c34)CCS2)C1	530 nM
NCCNC(=O)C1=CN(c2ccnc3[nH]ccc23)CCS1	160 nM
O=C(N[C@H](c1ccccc1)[C@H]1CCCN1)C1=CN(c2ncnc3[nH]ccc23)CCS1	82 nM
Cc1c[nH]c2nccc(N3C=C(C(=O)N4CCC[C@H](N)C4)SCC3)c12	280 nM
NCCCCCNC(=O)C1=CN(c2ncnc3[nH]ccc23)CCS1	920 nM
N[C@@H]1CCCC[C@H]1NC(=O)C1=CN(c2ncnc3[nH]ccc23)CCS1	2300 nM
NCCCCNC(=O)C1=CN(c2ncnc3[nH]ccc23)CCS1	210 nM
O=C(N[C@@H]1CCNC1)C1=CN(c2ncnc3[nH]ccc23)CCS1	380 nM
Cc1ncc(C2=CN(c3ncnc4[nH]cc(C)c34)CCS2)o1	> 10000 nM
O=C(N[C@H]1CCCNC1)C1=CN(c2ncnc3[nH]ccc23)CCS1	66 nM
N[C@@H]1CCN(C(=O)C2=CN(c3ncnc4[nH]ccc34)CCS2)C1	98 nM
O=C(N[C@H]1CCNC1)C1=CN(c2ncnc3[nH]ccc23)CCS1	68 nM
Cc1noc(C)c1C1=CN(c2ncnc3[nH]cnc23)CCS1	6900 nM
CN[C@@H]1CCCN(C(=O)C2=CN(c3ncnc4[nH]cnc34)CCS2)C1	260 nM
C[C@@H]1[C@H](N)CCCN1C(=O)C1=CN(c2ncnc3[nH]ccc23)CCS1	200 nM
Cc1cc(N2C=C(c3ccnc4[nH]ccc34)SCC2)nc(C(C)(C)C)n1	> 10000 nM
N[C@H]1CCCN(C(=O)C2=CN(c3ccnc4[nH]ccc34)CCS2)C1	68 nM
Cc1cc(N2C=C(c3ccnc4[nH]ccc34)SCC2)nc(N2CCCCC2)n1	> 10000 nM
C[C@H]1[C@H](N)CCCN1C(=O)C1=CN(c2ncnc3[nH]ccc23)CCS1	2000 nM
Cc1c[nH]c2ncnc(N3C=C(c4cnco4)SCC3)c12	1800 nM
O=C(C1=CN(c2ncnc3[nH]ccc23)CCS1)N1C[C@H]2CCCN[C@H]2C1	310 nM
C1=C(c2cc[nH]n2)SCCN1c1ncnc2[nH]cnc12	> 10000 nM
Cc1c[nH]c2nccc(N3C=C(C(=O)N4CCC[C@@H](N)C4)SCC3)c12	37 nM
CC(C)(N)CNC(=O)C1=CN(c2ncnc3[nH]ccc23)CCS1	380 nM

system: MDA-MB-468; assay: Antiproliferative activity against human MDA-MB-468 cells assessed as growth inhibition; format: functional, cell-based

Structure (SMILES)	Activity
C1=C(C2=CN(c3ncnc4[nH]ccc34)CCS2)CCNC1	Active
